# Laboratory results as given in ChEMBL document CHEMBL1151911, “A microwave-assisted facile regioselective Fischer indole synthesis and antitubercular evaluation of novel 2-aryl-3,4-dihydro-2H-thieno[3,2-b]indoles” (2009).
# Tested on: Mycobacterium tuberculosis
# Experiment: Antimycobacterial activity against multi drug-resistant Mycobacterium tuberculosis
# Assay type: functional
row,SMILES,MIC
1,CC(C)c1ccc(C2Cc3[nH]c4ccc(Cl)cc4c3S2)cc1 (stereo not given),0.78 µg/mL
2,Fc1ccc(C2Cc3[nH]c4ccc(Cl)cc4c3S2)cc1 (stereo not given),0.78 µg/mL
3,NNC(=O)c1ccncc1 [ISONIAZID],1.56 µg/mL
4,Cc1ccc(C2Cc3[nH]c4ccc(Cl)cc4c3S2)cc1 (stereo not given),6.25 µg/mL
5,Fc1ccc2[nH]c3c(c2c1)SC(c1ccccc1Cl)C3 (stereo not given),1.56 µg/mL
6,Clc1ccc(C2Cc3[nH]c4ccc(Cl)cc4c3S2)c(Cl)c1 (stereo not given),0.4 µg/mL
7,Clc1ccc(C2Cc3[nH]c4ccccc4c3S2)c(Cl)c1 (stereo not given),0.78 µg/mL
8,Fc1ccc2[nH]c3c(c2c1)SC(c1ccc(Cl)cc1Cl)C3 (stereo not given),0.4 µg/mL
9,Clc1ccc2[nH]c3c(c2c1)SC(c1ccccc1Cl)C3 (stereo not given),1.56 µg/mL
10,Cc1ccc(C2Cc3[nH]c4ccc(F)cc4c3S2)cc1 (stereo not given),1.56 µg/mL
11,Fc1ccc2[nH]c3c(c2c1)SC(c1ccc(Cl)cc1)C3 (stereo not given),1.56 µg/mL
12,CC(C)c1ccc(C2Cc3[nH]c4ccccc4c3S2)cc1 (stereo not given),0.4 µg/mL
13,O=[N+]([O-])c1cccc(C2Cc3[nH]c4ccccc4c3S2)c1 (stereo not given),0.78 µg/mL
14,NC(=O)c1cnccn1 [PYRAZINAMIDE],50 µg/mL
15,Brc1ccccc1C1Cc2[nH]c3ccccc3c2S1 (stereo not given),3.13 µg/mL
16,Fc1ccc2[nH]c3c(c2c1)SC(c1ccccc1)C3 (stereo not given),12.5 µg/mL
17,Cc1ccc(C2Cc3[nH]c4ccccc4c3S2)cc1 (stereo not given),12.5 µg/mL
18,CC[C@@H](CO)NCCN[C@@H](CC)CO [ETHAMBUTOL],12.5 µg/mL
19,CC(C)c1ccc(C2Cc3[nH]c4ccc(F)cc4c3S2)cc1 (stereo not given),0.4 µg/mL
20,CO[C@H]1/C=C/O[C@@]2(C)Oc3c(C)c(O)c4c(O)c(c(/C=N/N5CCN(C)CC5)c(O)c4c3C2=O)NC(=O)/C(C)=C\C=C\[C@H](C)[C@H](O)[C@@H](C)[C@@H](O)[C@@H](C)[C@H](OC(C)=O)[C@@H]1C [RIFAMPIN],3.13 µg/mL
